Source: ChEMBL document CHEMBL1124087, “Chemistry and positive inotropic effect of pelrinone and related derivatives. A novel class of 2-methylpyrimidones as inotropic agents” (J Med Chem, 1988)
Where “and” joins values, the source holds several entries; their conditions need not be identical. Equal entries are not always repeated.

Assays:
Canis familiaris [1] = assay: Inotropic effect in dogs with pentobarbital-induced heart failure, iv administration; format: functional; conditions: Canis lupus familiaris
[2] = (§1) Inhibition of crude bovine cardiac phosphodiesterase; design: species or system Bos taurus
Canis familiaris [3] = assay: (§2) Reduced arterial blood pressure after Id administration in dogs with pentobarbital-induced heart failure; format: functional; conditions: Canis lupus familiaris
Felis catus [4] = species: Felis catus; assay: The inotropic activity was assayed in vitro in cat papillary muscle; format: functional, Muscle tissue
Felis catus [5] = species: Felis catus; assay: Chronotropic effects were assayed in vitro in the isolated right artium of the cat.; format: functional
Felis catus [6] = species: Felis catus; assay: (§3) Ratio of Chronotropic (C) EC50 to inotropic (I) EC50; format: functional
[7] = (§4) Inhibition of bovine cardiac phosphodiesterase fraction III; design: species or system Bos taurus
Felis catus [8] = species: Felis catus; assay: In vitro inotropic effect in cat papillary muscle; format: functional
Canis familiaris [9] = assay: as §2; format: functional; conditions: Canis lupus familiaris; remark: listed apart in the source
Canis familiaris [10] = assay: Inotropic effect in anesthetized dogs; format: functional; conditions: Canis lupus familiaris
Canis familiaris [11] = species: Canis familiaris; assay: (§5) ED20/ED50 ratio (BP/ inotropic) of the compound; format: functional, Canis lupus familiaris
Canis familiaris [12] = assay: Inotropic effect in the dogs with pentobarbtial-induced heart failure, id administration; format: functional; conditions: Canis lupus familiaris
Felis catus [13] = species: Felis catus; assay: Ratio of Chronotropic (C) EC50 to inotropic (I) EC50
Felis catus [14] = species: Felis catus; assay: In vitro inotropic effect in cat papillary muscle (Inactive); format: functional, Muscle tissue
Felis catus [15] = species: Felis catus; assay: In vitro chronotropic effect in right artium of cat (Inactive); format: functional; further: test concentration or dose not given here
Canis familiaris [16] = assay: Inotropic effect in dogs with pentobarbitial-induced heart failure, iv administration; format: functional; conditions: Canis lupus familiaris
Canis familiaris [17] = assay: Inotropic effect in dogs with pentobarbtial-induced heart failure, iv administration; format: functional; conditions: Canis lupus familiaris
Canis familiaris [18] = species: Canis familiaris; assay: as §5; format: functional, Canis lupus familiaris; remark: listed apart in the source
Canis familiaris [19] = assay: as §2; format: functional; conditions: Canis lupus familiaris; remark: listed apart in the source
[20] = as §1; format: functional, Bos taurus
Phosphodiesterase 3B = Phosphodiesterase 3B (Bos taurus, UniProt E1BN64); assay: as §4
Phosphodiesterase 3B, sequence (E1BN64 whole entry): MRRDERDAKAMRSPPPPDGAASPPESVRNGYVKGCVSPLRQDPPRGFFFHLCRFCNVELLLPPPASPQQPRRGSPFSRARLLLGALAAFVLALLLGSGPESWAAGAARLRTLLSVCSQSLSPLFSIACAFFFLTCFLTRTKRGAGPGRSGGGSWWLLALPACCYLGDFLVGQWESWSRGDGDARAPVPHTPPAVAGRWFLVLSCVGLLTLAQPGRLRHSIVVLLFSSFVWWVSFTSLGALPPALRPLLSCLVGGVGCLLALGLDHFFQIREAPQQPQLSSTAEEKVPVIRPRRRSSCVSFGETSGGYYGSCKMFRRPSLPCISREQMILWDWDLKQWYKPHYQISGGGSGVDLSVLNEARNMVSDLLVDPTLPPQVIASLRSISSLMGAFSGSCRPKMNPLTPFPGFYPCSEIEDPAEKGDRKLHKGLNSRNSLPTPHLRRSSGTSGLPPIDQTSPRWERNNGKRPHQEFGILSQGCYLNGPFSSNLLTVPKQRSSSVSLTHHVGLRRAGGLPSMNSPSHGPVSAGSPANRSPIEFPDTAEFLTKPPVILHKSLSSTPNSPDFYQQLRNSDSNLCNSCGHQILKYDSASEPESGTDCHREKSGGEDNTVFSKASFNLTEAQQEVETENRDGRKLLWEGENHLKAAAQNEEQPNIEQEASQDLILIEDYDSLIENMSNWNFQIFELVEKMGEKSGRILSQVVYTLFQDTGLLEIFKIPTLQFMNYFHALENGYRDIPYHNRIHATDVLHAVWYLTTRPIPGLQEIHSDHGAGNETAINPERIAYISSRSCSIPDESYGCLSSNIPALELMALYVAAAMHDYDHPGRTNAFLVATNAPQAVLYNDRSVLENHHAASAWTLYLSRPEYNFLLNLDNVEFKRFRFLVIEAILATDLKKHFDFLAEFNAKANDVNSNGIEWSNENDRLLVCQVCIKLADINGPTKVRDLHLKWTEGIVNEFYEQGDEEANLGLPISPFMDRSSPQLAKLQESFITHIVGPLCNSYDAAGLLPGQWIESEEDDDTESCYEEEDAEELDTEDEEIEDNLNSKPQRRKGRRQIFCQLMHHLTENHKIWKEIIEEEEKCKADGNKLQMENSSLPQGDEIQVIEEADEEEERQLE

Canis familiaris [21] = assay: as §2; format: functional; conditions: Canis lupus familiaris; remark: listed apart in the source
Canis familiaris [22] = species: Canis familiaris; assay: as §3; format: functional, Canis lupus familiaris
[23] = Felis catus, Muscle tissue, read-out: EC50

| EC50 (Felis catus [4]; [23]) | EC50 (Felis catus [5]) | EC50 (Felis catus [14]) | EC50 (Felis catus [15]) | Compound | Ratio (Felis catus [13]) | also measured |
| --- | --- | --- | --- | --- | --- | --- |
| 3.9 µM | 380 uM l-1 |  |  | Cc1nc(O)c(Br)c(NCc2cccnc2)n1 |  | ED50 (Canis familiaris [1]): 0.018 mg/kg; IC50 [2]: 35 µM; ED20 (Canis familiaris [3]): 0.041 mg/kg; Ratio (Felis catus [6]): 97; IC50 [7]: 15 µM; EC50 (Felis catus [8]): 2.5 µM; ED20 (Canis familiaris [9]): 0.1 mg/kg; ED50 (Canis familiaris [10]): 0.012 mg/kg; Ratio (Canis familiaris [11]): 2.3 and 4.5; ED50 (Canis familiaris [12]): 0.022 mg/kg |
| 55 µM | 110 uM l-1 |  |  | CC(C)(C)c1nc(O)c(C#N)c(NCc2cccnc2)n1 | 2 |  |
|  |  | Not Active | Not Active | N#Cc1c(O)nc(O)nc1NCc1cccnc1 |  |  |
|  |  | Not Active | Not Active | COc1nc(C)nc(NCc2cccnc2)c1C#N |  |  |
|  |  | Not Active | Not Active | CNc1nc(C)nc(NCc2cccnc2)c1C#N |  |  |
| 4.4 µM | 250 uM l-1 |  |  | Cc1nc(O)c(C#N)c(NCc2ccncc2)n1 | 57 |  |
|  |  | Not Active | Not Active | CC(=O)c1c(O)nc(C)nc1NCc1cccnc1 |  |  |
| 14 µM |  |  |  | Cc1nc(S)c(C#N)c(NCc2cccnc2)n1 | 6 | EC50 (Felis catus [5]; Felis catus, read-out: EC50): 80 µM |
|  | 300 uM l-1 |  |  | Cc1nc(O)c(C#N)c(NCCc2cccnc2)n1 | 1.3 | EC50 (Felis catus [4]): 230 uM l-1 |
| 5.3 µM | > 1000 uM l-1 |  |  | Cc1nc(O)c([N+](=O)[O-])c(NCc2cccnc2)n1 | >189 |  |
|  |  | Not Active | Not Active | Cc1nc(Cl)c(C#N)c(NCc2cccnc2)n1 |  |  |
| 5.5 µM |  |  |  | CCc1nc(O)c(C#N)c(NCc2cccnc2)n1 | 16 | EC50 (Felis catus [5]; Felis catus, read-out: EC50): 86 µM |
|  |  | Not Active | Not Active | Cc1nc(O)c(C(N)=O)c(NCc2cccnc2)n1 |  |  |
|  |  | Not Active | Not Active | CSc1nc(C)nc(NCc2cccnc2)c1C#N |  |  |
| 5.9 µM | 212 uM l-1 |  |  | Cc1nc(=O)c(C#N)c(NCc2cccnc2)[nH]1 [PELRINONE] |  | IC50 [2]: 76 µM; ED20 (Canis familiaris [3]): 0.12 mg/kg; ED50 (Canis familiaris [16]): 0.033 mg/kg; ED20 (Canis familiaris [21]): > 3 mg/kg; IC50 [7]: 36 µM; EC50 (Felis catus [8]): 5 µM; Ratio (Canis familiaris [22]): 36; ED50 (Canis familiaris [10]): 0.03 mg/kg; ED50 (Canis familiaris [12]): 0.2 mg/kg |

The remaining lines, values behind:

| Compound | EC50 (Felis catus [4]; [23]) | EC50 (Felis catus [5]) | EC50 (Felis catus [14]) | EC50 (Felis catus [15]) | Ratio (Felis catus [13]) | also measured |
| --- | --- | --- | --- | --- | --- | --- |
| CCCNc1nc(C)nc(O)c1C#N | 1.9 µM |  |  |  | 9 | EC50 (Felis catus [5]; Felis catus, read-out: EC50): 17 µM |
| CCNc1nc(C)nc(O)c1[N+](=O)[O-] | 25 µM | 230 uM l-1 |  |  | 9 |  |
| CCNc1nc(C)nc(O)c1C(C)=O |  |  | Not Active | Not Active |  |  |
| Cc1nc(O)c(C#N)c(NCCc2ccccc2)n1 | 20 µM | > 1000 uM l-1 |  |  | >50 | ED20 (Canis familiaris [3]): 0.027 mg/kg; ED50 (Canis familiaris [16]): 0.07 mg/kg; ED20 (Canis familiaris [9]): 0.3 mg/kg; ED50 (Canis familiaris [12]): 0.22 mg/kg |
| N#Cc1c(O)ncnc1NCc1cccnc1 |  |  | Not Active | Not Active |  |  |
| Cc1nc(O)c(Br)c(NCCc2ccccc2)n1 | 6.1 µM | > 1000 uM l-1 |  |  | >164 | ED20 (Canis familiaris [3]): < 0.01 mg/kg; ED50 (Canis familiaris [17]): 0.029 mg/kg; ED20 (Canis familiaris [9]): > 1 mg/kg; ED50 (Canis familiaris [12]): > 1 mg/kg |
| CCNc1nc(C)nc(O)c1Br | 4.1 µM | 420 uM l-1 |  |  |  | ED50 (Canis familiaris [1]): 0.01 mg/kg; ED20 (Canis familiaris [3]): < 0.003 mg/kg; Ratio (Canis familiaris [18]): <0.3; EC50 (Felis catus [4]; read-out: EC50): 2.8 µM; Ratio (Felis catus [6]): 102; IC50 [7]: 38 µM; ED50 (Canis familiaris [10]): 0.01 mg/kg; Ratio (Canis familiaris [11]): 1.6; ED20 (Canis familiaris [19]): 0.05 mg/kg; ED50 (Canis familiaris [12]): 0.03 mg/kg |
| Cc1nc(O)c(C#N)c(NCc2ccco2)n1 | 10 µM |  |  |  | 8.8 | EC50 (Felis catus [5]; Felis catus, read-out: EC50): 88 µM |
| Cc1nc(O)c(C#N)c(NCc2ccccn2)n1 | 43 µM | 180 uM l-1 |  |  | 4 |  |
| CCNc1nc(C)nc(O)c1C#N | 2.6 µM | 300 uM l-1 |  |  | 115 | ED20 (Canis familiaris [3]): 0.37 mg/kg; Ratio (Canis familiaris [18]): 1.4 and 1.2; ED50 (Canis familiaris [16]): 0.027 mg/kg; ED20 (Canis familiaris [9]): 0.07 mg/kg; ED50 (Canis familiaris [12]): 0.06 mg/kg |
| N#Cc1c(O)nc(-c2ccccc2)nc1NCc1cccnc1 |  |  | Not Active | Not Active |  |  |
| Cc1nc(O)c(Cl)c(NCCc2ccccc2)n1 | 1.2 µM | > 1000 uM l-1 |  |  | >833 |  |
| Cc1nc(O)c(C#N)c(NCCc2ccccn2)n1 | 37 µM |  |  |  | 2 | EC50 (Felis catus [5]; Felis catus, read-out: EC50): 71 µM |
| Cc1nc(O)c(C#N)c(NCCc2ccncc2)n1 | 6.5 µM | 396 uM l-1 |  |  | 61 |  |
| N#Cc1c(O)nc(Cc2ccccc2)nc1NCc1cccnc1 | 72 µM | ~ 1000 uM l-1 |  |  | 14 |  |
| CSc1ccc(C(=O)c2[nH]c(=O)[nH]c2C)cc1 [ENOXIMONE] | 90 µM | 200 uM l-1 |  |  | 2.2 |  |
| O=C1CCC(c2ccc(-n3ccnc3)cc2)=NN1 [IMAZODAN] | 7 µM |  |  |  |  | IC50 [20]: 145 µM; ED50 (Canis familiaris [10]): 0.08 mg/kg; IC50 (Phosphodiesterase 3B): 94 µM |
| Cc1[nH]c(=O)c(C#N)cc1-c1ccncc1 [MILRINONE] | 7.7 µM | ~ 300 uM l-1 |  |  |  | ED50 (Canis familiaris [1]): 0.016 mg/kg; IC50 [2]: 192 µM; ED20 (Canis familiaris [3]): 0.048 mg/kg; Ratio (Canis familiaris [18]): 3; Ratio (Felis catus [6]): ~39; IC50 [7]: 28 µM; EC50 (Felis catus [8]): 6.5 µM; ED20 (Canis familiaris [9]): 0.1 mg/kg; ED50 (Canis familiaris [10]): 0.02 mg/kg; Ratio (Canis familiaris [11]): 2.5; ED50 (Canis familiaris [12]): 0.04 mg/kg |
